Test [1] can be described thus: inhibitors of Bodipy-GTP binding across eight GTPases, SAR follow-up, selectivity assay for Cdc42 probe extension project, biochemical, round 1 SAR, Mg buffer, multiplex flow cytometry (AID 588477). The note with it: GST-GTPase beads, Cdc42 constitutively active. On the technique in general: A flow cytometer gives signals particle by particle.
The next test concerns the target Cdc42 wt. Described as above. The conditions noted are these: GST-GTPase beads.

Activity calls are given as the source filed them.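 The calls were made as follows: active = valid curve fit with half-effect dose at most 10 µM and total binding change across doses of 30 points or more; inactive = the rest.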

As to `O=C(C#Cc1ccccc1)c1cccc([N+](=O)[O-])c1`, the EC50 in test [1] was 2.68 µM. The “percent response (remaining binding)” value at Cdc42 wt (at 100 µM (top of the series)) was “inactive”.

As to `COc1ccc(C2CC(c3ccccc3)=NN2c2ccc(S(N)(=O)=O)cc2)cc1` (stereo unspecified), the results for the EC50 (in test [1]; at Cdc42 wt) were 3.69 µM and 2.41 µM, respectively.

On to `NS(=O)(=O)c1ccc(N2N=C(c3ccccc3)CC2c2ccccc2)cc1` (stereo unspecified), for which, in test [1] (at 100 µM (top of the series)), the “percent response (remaining binding)” value is “inactive”. The concentration giving a half-maximal response (EC50) on Cdc42 wt was 7.26 µM.

What is called EC50 is the midpoint of the concentration-response curve.

The values above are taken from PubChem BioAssay AID588477 (NMMLSC, 2011).
